Results taken from the supplement of paper PMC10307832.

Key:
Test in all cases: relative viability (nuclei count vs DMSO), 5 days (fraction); higher = more cells survive
[1] = compound: COc1cc2ncn(-c3cc(OCc4ccccc4C(F)(F)F)c(C(N)=O)s3)c2cc1OC + N=C(N)NC(=N)NCCc1ccccc1 [Phenformin] (partner 250 µM)
In short: (§1)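 A single step with final 0.05% Triton X-100, 1% formaldehyde and 1 ug/ml Hoechst fixed the cells and stained nuclei 5 days after treatment. Lung cancer cell lines in 1536-well plates had been treated by pin tool the day after seeding with one drug alone or a fixed anchor-drug dose plus five library-drug doses (not always all listed) in √10 steps, and nuclei were counted on 4× images. Relative viability is the ratio of nuclei in treated wells to nuclei in vehicle wells, taken as the median of duplicate plates.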

[2] = compound: COc1cc2ncn(-c3cc(OCc4ccccc4C(F)(F)F)c(C(N)=O)s3)c2cc1OC + CS(=O)(=O)N1CCN(Cc2cc3nc(-c4cccc5[nH]ncc45)nc(N4CCOCC4)c3s2)CC1 [Pictilisib] (partner 1 µM)
In short: as §1

[3] = compound: COc1cc2ncn(-c3cc(OCc4ccccc4C(F)(F)F)c(C(N)=O)s3)c2cc1OC + NC(=O)Nc1cc(-c2cccc(F)c2)sc1C(=O)N[C@H]1CCCNC1 [AZD7762] (partner 0.2 µM)
In short: as §1

[4] = compound: COc1cc2ncn(-c3cc(OCc4ccccc4C(F)(F)F)c(C(N)=O)s3)c2cc1OC + Cc1nc(NC(=O)N2CCC[C@H]2C(N)=O)sc1-c1ccnc(C(C)(C)C(F)(F)F)c1 [Alpelisib] (partner 2 µM)
In short: as §1

Row | Cell Line | relative viability ([1]; first compound 0.05 µM) | relative viability ([1]; first compound 0.1581 µM) | relative viability ([1]; first compound 0.5 µM) | relative viability ([1]; first compound 1.581 µM) | relative viability ([1]; first compound 5 µM) | relative viability ([2]; first compound 0.05 µM) | relative viability ([2]; first compound 0.1581 µM) | relative viability ([2]; first compound 0.5 µM) | relative viability ([2]; first compound 1.581 µM) | relative viability ([2]; first compound 5 µM) | relative viability ([3]; first compound 0.05 µM) | relative viability ([3]; first compound 0.1581 µM) | relative viability ([3]; first compound 0.5 µM) | relative viability ([3]; first compound 1.581 µM) | relative viability ([3]; first compound 5 µM) | relative viability ([4]; first compound 0.05 µM) | relative viability ([4]; first compound 0.1581 µM) | relative viability ([4]; first compound 0.5 µM) | relative viability ([4]; first compound 1.581 µM) | relative viability ([4]; first compound 5 µM)
1 | NCI-H2405 | 0.437 | 0.274 | 0.29 | 0.322 | 0.246 | 0.512 | 0.265 | 0.458 | 0.366 | 0.27 | 0.793 | 0.703 | 0.446 | 0.262 | 0.263 | 0.788 | 0.634 | 0.402 | 0.401 | 0.38
2 | NCI-H3122 | 0.362 | 0.37 | 0.16 | 0.143 | 0.128 | 0.578 | 0.269 | 0.282 | 0.212 | 0.184 | 1.07 | 0.81 | 0.359 | 0.133 | 0.144 | 0.842 | 0.514 | 0.203 | 0.149 | 0.197
3 | PC-3 [JPC-3] | 0.494 | 0.501 | 0.381 | 0.184 | 0.187 | 0.728 | 0.78 | 0.611 | 0.327 | 0.26 | 0.833 | 0.741 | 0.597 | 0.238 | 0.252 | 0.983 | 0.98 | 0.707 | 0.307 | 0.318
4 | PC-14 | 0.501 | 0.561 | 0.465 | 0.119 | 0.0948 | 0.717 | 0.694 | 0.343 | 0.0295 | 0.0382 | 0.371 | 0.405 | 0.334 | 0.113 | 0.0718 | 0.833 | 0.944 | 0.768 | 0.0614 | 0.135
5 | RERF-LC-KJ | 0.376 | 0.396 | 0.229 | 0.272 | 0.259 | 0.557 | 0.692 | 0.269 | – | 0.185 | 1.01 | 1.59 | 0.849 | 0.761 | 0.814 | 0.859 | 0.849 | 0.515 | 0.294 | 0.622
